Test results reported in patent US8044198B2, “Sirtuin modulating compounds” (Sirtris Pharmaceuticals, Inc., priority 2005, dated 2011).

Target: T1, SIRT1 (Homo sapiens, UniProt Q96EB6)
T1 sequence (Q96EB6 1-747): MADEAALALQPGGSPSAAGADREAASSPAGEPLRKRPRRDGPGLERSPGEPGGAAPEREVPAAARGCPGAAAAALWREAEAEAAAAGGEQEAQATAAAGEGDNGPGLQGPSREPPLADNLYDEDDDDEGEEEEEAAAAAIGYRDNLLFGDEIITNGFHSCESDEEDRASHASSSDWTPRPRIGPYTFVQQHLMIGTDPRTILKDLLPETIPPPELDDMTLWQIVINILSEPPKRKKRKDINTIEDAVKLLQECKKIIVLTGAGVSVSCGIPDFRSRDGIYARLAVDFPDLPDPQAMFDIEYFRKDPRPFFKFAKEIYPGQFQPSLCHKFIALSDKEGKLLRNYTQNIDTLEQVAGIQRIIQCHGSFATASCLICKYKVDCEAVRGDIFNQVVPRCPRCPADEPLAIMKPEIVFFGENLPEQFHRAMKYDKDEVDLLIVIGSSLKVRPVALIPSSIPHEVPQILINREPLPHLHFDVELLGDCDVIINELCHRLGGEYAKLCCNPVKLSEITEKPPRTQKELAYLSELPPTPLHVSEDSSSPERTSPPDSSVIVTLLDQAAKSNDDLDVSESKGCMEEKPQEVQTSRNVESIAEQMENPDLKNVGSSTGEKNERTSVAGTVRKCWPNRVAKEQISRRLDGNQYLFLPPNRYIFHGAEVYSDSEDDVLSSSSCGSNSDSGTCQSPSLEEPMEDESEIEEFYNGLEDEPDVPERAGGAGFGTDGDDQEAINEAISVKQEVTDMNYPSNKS
Test: SIRT1 mass spectrometry (MS) based deacetylation assay; as to FOLD ACT. MS: test concentration or dose not given here
Format: biochemical
Details: for EC50: SIRT1 activation, mass spectrometry assay, read-out: ED50 MS ASSAY; for FOLD ACT. MS: fold activation of SIRT1, mass spectrometry assay

EC50	FOLD ACT. MS	Structure (SMILES)
5 to 50 µM	B (B (Fold Activation <250%))	COc1ccc(C(=O)Nc2ccccc2-c2cn3c(CN4CCNCC4)csc3n2)c(OC)c1 [Compound 326]
5 to 50 µM	A (A (Fold activation >250%))	CN(C)c1cccc(C(=O)Nc2ccccc2-c2cn3c(CN4CCNCC4)csc3n2)c1 [Compound 327]
51 to 100 µM	A (A (Fold activation >250%))	O=C(Nc1ccccc1-c1cn2c(CN3CCNCC3)csc2n1)c1ccccc1 [Compound 328]
5 to 50 µM	A (A (Fold activation >250%))	O=C(Nc1ccccc1-c1cn2c(CN3CCNCC3)csc2n1)c1ccc2c(c1)OCO2 [Compound 329]
5 to 50 µM	A (A (Fold activation >250%))	N#Cc1cccc(C(=O)Nc2ccccc2-c2cn3c(CN4CCNCC4)csc3n2)c1 [Compound 330]
5 to 50 µM	B (B (Fold Activation <250%))	COc1ccc(C(=O)Nc2cccc(-c3cccnc3)c2)c(OC)c1 [Compound 331]
5 to 50 µM	B (B (Fold Activation <250%))	COc1ccc(C(=O)Nc2cccc(-c3cccnc3)c2)cc1OC [Compound 332]
5 to 50 µM	B (B (Fold Activation <250%))	COc1cc(C(=O)Nc2cccc(-c3cccnc3)c2)cc(OC)c1OC [Compound 333]
5 to 50 µM	B (B (Fold Activation <250%))	COc1ccc(C(=O)Nc2ccccc2-c2cccs2)c(OC)c1 [Compound 334]
5 to 50 µM	B (B (Fold Activation <250%))	COc1ccc(C(=O)Nc2ccccc2-c2cccs2)cc1OC [Compound 335]
5 to 50 µM	A (A (Fold activation >250%))	O=C(Nc1ccccc1-c1cn2c(CN3CCNCC3)csc2n1)c1ccc2occc2c1 [Compound 338]
< 5 µM	B (B (Fold Activation <250%))	COc1cc(C(=O)Nc2ccc(-c3nc4ccncc4o3)cc2)cc(OC)c1OC [Compound 341]
5 to 50 µM	B (B (Fold Activation <250%))	COc1ccc(C(=O)Nc2cccc(-c3nc4cnccc4o3)c2)c(OC)c1OC [Compound 343]
< 5 µM	B (B (Fold Activation <250%))	COc1ccc(C(=O)Nc2cccc(-c3nc4cnccc4o3)c2)cc1OC [Compound 344]
< 5 µM	B (B (Fold Activation <250%))	COc1cc(C(=O)Nc2ccc(-c3nc4cnccc4o3)cc2)cc(OC)c1OC [Compound 347]
51 to 100 µM	B (B (Fold Activation <250%))	COc1ccc(C(=O)Nc2ccccc2-c2nc3ccccn3c2CN(C)C)cc1OC [Compound 350]
5 to 50 µM	B (B (Fold Activation <250%))	COc1cc(C(=O)Nc2ccccc2-c2nc3ccccn3c2CN(C)C)cc(OC)c1OC [Compound 351]
51 to 100 µM	B (B (Fold Activation <250%))	COc1cc(C(=O)Nc2ccccc2-c2nc3ccccn3c2CN2CCNCC2)cc(OC)c1OC [Compound 362]
> 150 µM	A (A (Fold activation >250%))	COc1ccc(C(=O)Nc2ccccc2-c2nc3ccccn3c2CN2CCNCC2)cc1OC [Compound 364]
5 to 50 µM	B (B (Fold Activation <250%))	Cc1nn(-c2ccccc2)nc1C(=O)Nc1ccccc1-c1nc2ccncc2s1 [Compound 390]
5 to 50 µM	B (B (Fold Activation <250%))	O=C(Nc1ccccc1-c1nc2ccncc2s1)c1cnccn1 [Compound 391]
5 to 50 µM	B (B (Fold Activation <250%))	O=C(Nc1ccccc1-c1nc2ccncc2s1)c1ccc(Oc2ccccc2)nc1 [Compound 392]
5 to 50 µM	B (B (Fold Activation <250%))	CC(CC(=O)Nc1cccc(-c2nc3ccncc3s2)c1)Oc1ccccc1 (stereo not shown) [Compound 396]
5 to 50 µM	B (B (Fold Activation <250%))	CN(C)c1cccc2c(S(=O)(=O)Nc3cccc(-c4nc5ccncc5s4)c3)cccc12 [Compound 398]
5 to 50 µM	B (B (Fold Activation <250%))	O=c1[nH]c2ccc(S(=O)(=O)Nc3cccc(-c4nc5ccncc5s4)c3)cc2o1 [Compound 399]
5 to 50 µM	B (B (Fold Activation <250%))	COc1ccc(C(=O)Nc2cccc(-c3nc4cnccc4s3)c2)c(OC)c1OC [Compound 401]
< 5 µM	B (B (Fold Activation <250%))	CN(C)c1cccc(C(=O)Nc2cccc(-c3nc4cnccc4s3)c2)c1 [Compound 402]

EC50	FOLD ACT. MS	Structure (SMILES)
< 5 µM	B (B (Fold Activation <250%))	CN(C)c1ccc(C(=O)Nc2cccc(-c3nc4cnccc4s3)c2)cc1 [Compound 403]
< 5 µM	B (B (Fold Activation <250%))	COc1cc(OC)cc(C(=O)Nc2ccccc2-c2nc3cnccc3o2)c1 [Compound 404]
< 5 µM	B (B (Fold Activation <250%))	COc1cc(C(=O)Nc2ccccc2-c2nc3cnccc3o2)cc(OC)c1OC [Compound 405]
< 5 µM	B (B (Fold Activation <250%))	CN(C)c1cccc(C(=O)Nc2ccccc2-c2nc3cnccc3o2)c1 [Compound 406]
< 5 µM	B (B (Fold Activation <250%))	CN(C)c1ccc(C(=O)Nc2ccccc2-c2nc3cnccc3o2)cc1 [Compound 407]
51 to 100 µM	B (B (Fold Activation <250%))	CN(C)c1cccc(C(=O)Nc2ccc(-c3nc4ccncc4o3)cc2)c1 [Compound 408]
5 to 50 µM	B (B (Fold Activation <250%))	COc1ccc(C(=O)Nc2ccccc2-c2nc3cnccc3s2)c(OC)c1OC [Compound 411]
51 to 100 µM	B (B (Fold Activation <250%))	COc1ccc(C(=O)Nc2ccccc2-c2cnc3ccccc3c2)c(OC)c1 [Compound 413]
5 to 50 µM	B (B (Fold Activation <250%))	COc1ccc(C(=O)Nc2ccccc2-c2cnc3ccccc3c2)cc1OC [Compound 414]
51 to 100 µM	B (B (Fold Activation <250%))	COc1cc(C(=O)Nc2ccccc2-c2cnc3ccccc3c2)cc(OC)c1OC [Compound 415]
5 to 50 µM	B (B (Fold Activation <250%))	COc1ccc(C(=O)Nc2ccccc2-c2nc3cnccc3o2)c(OC)c1OC [Compound 421]
5 to 50 µM	B (B (Fold Activation <250%))	COc1ccc(C(=O)Nc2ccc(-c3nc4cnccc4o3)s2)c(OC)c1 [Compound 422]
< 5 µM	B (B (Fold Activation <250%))	COc1ccc(C(=O)Nc2ccc(-c3nc4cnccc4o3)s2)cc1OC [Compound 423]
< 5 µM	B (B (Fold Activation <250%))	COc1cc(C(=O)Nc2ccc(-c3nc4cnccc4o3)s2)cc(OC)c1OC [Compound 426]
< 5 µM	B (B (Fold Activation <250%))	CN(C)c1cccc(C(=O)Nc2ccc(-c3nc4cnccc4o3)s2)c1 [Compound 427]
< 5 µM	B (B (Fold Activation <250%))	COc1ccc(C(=O)Nc2cccc(-c3nc4ccncc4o3)c2)c(OC)c1 [Compound 429]
5 to 50 µM	A (A (Fold activation >250%))	COc1cc(C(=O)Nc2cccc(-c3nc4ccncc4o3)c2)cc(OC)c1OC [Compound 430]
5 to 50 µM	B (B (Fold Activation <250%))	CN(C)c1ccc(C(=O)Nc2cccc(-c3nc4ccncc4o3)c2)cc1 [Compound 431]
5 to 50 µM	A (A (Fold activation >250%))	COc1cc(C(=O)Nc2ccccc2-c2nc3ccncc3s2)ccc1CN1CCCC1 [Compound 436]
5 to 50 µM	B (B (Fold Activation <250%))	COc1ccc(C(=O)Nc2ccccc2-c2cn3cccnc3n2)c(OC)c1 [Compound 437]
< 5 µM	A (A (Fold activation >250%))	COc1ccc(C(=O)Nc2ccccc2-c2cn3cccnc3n2)cc1OC [Compound 438]
< 5 µM	B (B (Fold Activation <250%))	COc1cc(C(=O)Nc2ccccc2-c2cn3cccnc3n2)cc(OC)c1OC [Compound 439]
< 5 µM	A (A (Fold activation >250%))	O=C(Nc1ccccc1-c1cn2c(CN3CCNCC3)csc2n1)c1ccc2ccccc2n1 [Compound 440]
< 5 µM	A (A (Fold activation >250%))	O=C(Nc1ccccc1-c1cn2c(CN3CCNCC3)csc2n1)c1cnc2ccccc2n1 [Compound 441]
< 5 µM	A (A (Fold activation >250%))	Cc1c(C(=O)Nc2ccccc2-c2cn3c(CN4CCNCC4)csc3n2)oc2ccccc12 [Compound 442]
5 to 50 µM	A (A (Fold activation >250%))	Cc1cc(C(=O)Nc2ccccc2-c2cn3c(CN4CCNCC4)csc3n2)c(C)o1 [Compound 443]
